Settings: 303.15 K, Liquid, Vibrating tube method

CCCCC(=O)OCC(COC(=O)CCCC)(COC(=O)CCCC)COC(=O)CCCC [pentaerythritol tetrapentanoate]
Settings	mass density [kg/m3]
4917.5 kPa	1014
4937.6 kPa	1014
4960.8 kPa	1014
4980.3 kPa	1014.2
5000.8 kPa	1014.1
5025.3 kPa	1014.2
5046.6 kPa	1014.1
5067.7 kPa	1014.1
5090.5 kPa	1014.1
5111.3 kPa	1014.1
5136.1 kPa	1014.1
5153.9 kPa	1014.2
5159.6 kPa	1014.2
5160.1 kPa	1014.2
5161.3 kPa	1014.2
5164.9 kPa	1014.2
5167.4 kPa	1014.3
5169.1 kPa	1014.2
5170.1 kPa	1014.2
5173.9 kPa	1014.1
5178.6 kPa	1014.2
5179.3 kPa	1014.2
5180.5 kPa	1014.2
5181.4 kPa	1014.2
5181.7 kPa	1014.2
5182.6 kPa	1014.3
5182.9 kPa	1014.3
5183.8 kPa	1014.2
5184.3 kPa	1014.2
5184.7 kPa	1014.2
5185.4 kPa	1014.2
5185.5 kPa	1014.3
5189.7 kPa	1014.1
5199.6 kPa	1014.3
5209.2 kPa	1014.3
5217.7 kPa	1014.2
5223.9 kPa	1014.2
5239.9 kPa	1014.2
5266.9 kPa	1014.4
5289.9 kPa	1014.2
5312.7 kPa	1014.4
5340.7 kPa	1014.1
5364.2 kPa	1014.3
5388.3 kPa	1014.4
5417.9 kPa	1014.3
5443 kPa	1014.4
5468.4 kPa	1014.4
5493.1 kPa	1014.4
5518.4 kPa	1014.5
5548.5 kPa	1014.4
5573.5 kPa	1014.4
5599.8 kPa	1014.5
5631 kPa	1014.4
5657.1 kPa	1014.5
5684.4 kPa	1014.6
5712.8 kPa	1014.5
5747 kPa	1014.4
5774.2 kPa	1014.6
5801.5 kPa	1014.6
5829.1 kPa	1014.6
5862.5 kPa	1014.7
5891.4 kPa	1014.7
5920.4 kPa	1014.8
5955.2 kPa	1014.6
5985.3 kPa	1014.7
6015.3 kPa	1014.7
6045.8 kPa	1014.8
6082.1 kPa	1014.7
6112.3 kPa	1014.8
6149.7 kPa	1014.8
6181.5 kPa	1014.8
6213.5 kPa	1014.9
6246.6 kPa	1014.8
6279.6 kPa	1014.9
6319.4 kPa	1014.9
6353.6 kPa	1015
6388.4 kPa	1014.9
6430.4 kPa	1015
6466 kPa	1014.9
6496.2 kPa	1015
6524.4 kPa	1015.1
6558.6 kPa	1015.1
6587.6 kPa	1015.1
6617.8 kPa	1015.1
6648.1 kPa	1015.2
6678.6 kPa	1015.1
6714 kPa	1015.2
6743.7 kPa	1015.3
6774.5 kPa	1015.2
6811.1 kPa	1015.3
6842.3 kPa	1015.2
6873.4 kPa	1015.3
6911.1 kPa	1015.3
6943.4 kPa	1015.4
6975.7 kPa	1015.2
7008.7 kPa	1015.3
7048.1 kPa	1015.3
7083.3 kPa	1015.5
7119.9 kPa	1015.4
7154.6 kPa	1015.4
7190.2 kPa	1015.4
7232.8 kPa	1015.5
7266.1 kPa	1015.6
7296.5 kPa	1015.5
7326.2 kPa	1015.5
7361.8 kPa	1015.6
7392.7 kPa	1015.6
7425.7 kPa	1015.6
7461.8 kPa	1015.7
7491.3 kPa	1015.7
7529.6 kPa	1015.6
7561.2 kPa	1015.7
7593.6 kPa	1015.8
7626.1 kPa	1015.9
7659.1 kPa	1015.6
7692.2 kPa	1015.8
7732.6 kPa	1015.9
7766.1 kPa	1015.8
7800.6 kPa	1015.9
7835 kPa	1015.7
7876.5 kPa	1015.9
7911.6 kPa	1016
7947.1 kPa	1016
7990.4 kPa	1016
8026.7 kPa	1015.9
8062.9 kPa	1016.1
8107.6 kPa	1016.1
8145.4 kPa	1016.1
8184.2 kPa	1016.2
8222.5 kPa	1016.2
8262.2 kPa	1016.2
8293.2 kPa	1016.2
8323.8 kPa	1016.3
8354.7 kPa	1016.2
8392.8 kPa	1016.3
8424.5 kPa	1016.1
8457.1 kPa	1016.3
8489 kPa	1016.4
8528 kPa	1016.3
8560.4 kPa	1016.4
8593.7 kPa	1016.5
8633.4 kPa	1016.4
8666.8 kPa	1016.3
8707.5 kPa	1016.4
8742.2 kPa	1016.4
8776.3 kPa	1016.6
8818.4 kPa	1016.6
8854.8 kPa	1016.4
8890.8 kPa	1016.5
8920.7 kPa	1016.5
8952.9 kPa	1016.6
8979.8 kPa	1016.7
9013.1 kPa	1016.5
9039.8 kPa	1016.6
9066.8 kPa	1016.6
9100.5 kPa	1016.7
9128.4 kPa	1016.7
9157.4 kPa	1016.6
9191.7 kPa	1016.8
9218.7 kPa	1016.8
9247.2 kPa	1016.8
9281.8 kPa	1016.7
9311.6 kPa	1016.7
9342 kPa	1016.8
9371.6 kPa	1016.9
9407.8 kPa	1016.8
9438.5 kPa	1016.8
9469.3 kPa	1017
9495.9 kPa	1017
9521 kPa	1016.9
9552.9 kPa	1017
9584.8 kPa	1016.9
9608.9 kPa	1017
9634.2 kPa	1017
9666.8 kPa	1017
9688 kPa	1017
9719.7 kPa	1017.1
9746.4 kPa	1017.1
9779.5 kPa	1017.2
9805.7 kPa	1017.2
9831.9 kPa	1017.1
9858.9 kPa	1017.1
9892.2 kPa	1017.1
9921.6 kPa	1017.2
9948 kPa	1017.2
9980.5 kPa	1017.3
10009 kPa	1017.3
10046 kPa	1017.3
10069 kPa	1017.3
10099 kPa	1017.4
10134 kPa	1017.2
10161 kPa	1017.2
10195 kPa	1017.3
10225 kPa	1017.5
10254 kPa	1017.4
10289 kPa	1017.4
10319 kPa	1017.5
10351 kPa	1017.4
10382 kPa	1017.1
10417 kPa	1017.5
10448 kPa	1017.6
10480 kPa	1017.6
10517 kPa	1017.7
10550 kPa	1017.5
10583 kPa	1017.6
10624 kPa	1017.7
10658 kPa	1017.5
10690 kPa	1017.7
10713 kPa	1017.7
10757 kPa	1017.7
10800 kPa	1017.6
10821 kPa	1017.7
10840 kPa	1017.8
10863 kPa	1017.8
10883 kPa	1017.9
10904 kPa	1017.8
10928 kPa	1017.9
10947 kPa	1017.9
10968 kPa	1017.8
10992 kPa	1017.9
11013 kPa	1017.8
11033 kPa	1017.9
11058 kPa	1017.9
11078 kPa	1017.9
11101 kPa	1018
11121 kPa	1018
11147 kPa	1017.9
11168 kPa	1017.9
11191 kPa	1018.1
11213 kPa	1017.9
11234 kPa	1017.9
11255 kPa	1018.1
11281 kPa	1018
11302 kPa	1018
11328 kPa	1018.2
11349 kPa	1018.1
11372 kPa	1018.1
11398 kPa	1018.1
11420 kPa	1018.2
11443 kPa	1018
11469 kPa	1018.2
11491 kPa	1018.1
11513 kPa	1018.1
11541 kPa	1018.2
11564 kPa	1018.2
11586 kPa	1018.3
11612 kPa	1018.2
11635 kPa	1018.2
11658 kPa	1018.3
11688 kPa	1018.3
11710 kPa	1018.2
11734 kPa	1018.2
11758 kPa	1018.4
11785 kPa	1018.3
11809 kPa	1018.3
11838 kPa	1018.4
11862 kPa	1018.4
11884 kPa	1018.5
11909 kPa	1018.4
11938 kPa	1018.6
11963 kPa	1018.4
11988 kPa	1018.5
12014 kPa	1018.5
12044 kPa	1018.5
12069 kPa	1018.5
12095 kPa	1018.5
12120 kPa	1018.5
12148 kPa	1018.6
12173 kPa	1018.6
12205 kPa	1018.5
12229 kPa	1018.7
12254 kPa	1018.5
12285 kPa	1018.7
12312 kPa	1018.6
12338 kPa	1018.6
12366 kPa	1018.7
12391 kPa	1018.8
12423 kPa	1018.7
12449 kPa	1018.7
12476 kPa	1018.7
12508 kPa	1018.8
12536 kPa	1018.8
12562 kPa	1018.8
12596 kPa	1018.8
12621 kPa	1018.8
12649 kPa	1018.8
12682 kPa	1018.8
12710 kPa	1018.8
12740 kPa	1018.9
12766 kPa	1018.9
12798 kPa	1019
12826 kPa	1018.9
12856 kPa	1019
12889 kPa	1019.1
12918 kPa	1019.1
12946 kPa	1019
12980 kPa	1019.1
13009 kPa	1019
13044 kPa	1019.1
13075 kPa	1019.2
13102 kPa	1019.2
13132 kPa	1019.1
13169 kPa	1019.2
13197 kPa	1019.1
13227 kPa	1019.2
13258 kPa	1019.1
13295 kPa	1019.2
13324 kPa	1019.2
13359 kPa	1019.3
13390 kPa	1019.3
13421 kPa	1019.3
13458 kPa	1019.3
13489 kPa	1019.4
13520 kPa	1019.4
13558 kPa	1019.4
13590 kPa	1019.4
13622 kPa	1019.4
13660 kPa	1019.5
13693 kPa	1019.5
13725 kPa	1019.6

— the NIST ThermoML archive (doi:10.1021/je060271a)
